From patent US4309559A, “Sulphonamides useful as pesticides” (FBC Limited, priority 1977, dated 1982)

How the values were obtained:
[1] = test system: Ryegrass (Lolium perenne); assay: Soil incorporation (attaclay/sand dust), growth regulatory or herbicidal effects, ryegrass; format: in vivo; settings: 504 h, soil incorporation 26 ppm, 21 days, 0=no effect, 100=complete kill, read-out: growth regulatory or herbicidal effect score
Summary of the method: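 Active ingredient formulated as attaclay/sand dust and mixed into John Innes I potting compost at 26 or 130 ppm w/v (about 11.2 or 56 kg a.i./ha cultivated to 5 cm). Seeds sown in treated soil, grown 21 days at 22° C, 65-85% RH, 14 h light at 13,000 lux; visual score 0-100 versus untreated control.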

Barley (Hordeum vulgare) = assay: Pre-emergence soil surface spray, barley; format: in vivo; settings: soil surface spray 2.8 kg/ha, 21 days, 0=no effect, 100=complete kill
Summary of the method: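 Visual score 0-100 (0 = no effect, 100 = complete kill) relative to untreated control, taken 21 days after a pre-emergence soil-surface spray at 2.8 kg a.i./ha in 450 l/ha. Compound formulated in 1:1 aqueous acetone; growth at 22° C., RH 65-85%, 14 h/day light at 17,000 lux.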

Pythium ultimum [2] = assay: Fungal growth on the surface of soil infected with damping-off disease organism; format: in vivo; settings: 6 days, 25° C., 0-8 scale
Pythium ultimum [3] = assay: Cabbage seedling emergence in soil infected with Pythium ultimum; format: in vivo, Pythium ultimum (on cabbage, variety Flower of Spring); settings: 6 days, 25° C., 0-8 scale
Summary of the method: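 Potting compost infested with one-week maize meal/sand Pythium ultimum culture (3 kg per 12 l soil), drenched with compound in Tween 20/water at 1500, 500, 150 or 50 ppm; 15 cabbage seeds sown per carton, 25° C, four replicates. After six days, soil-surface fungal growth and seedling emergence scored 0-8.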

CCCS(=O)(=O)N(c1c(C)cccc1C)C(C)C(=O)OCC (stereo not drawn) [Example 24, N-(1-[ethoxycarbonyl]ethyl)-2',6'-dimethyl-1-propanesulphonanilide]
pest or weed control at 26 µg/mL [1]: 100%
growth regulatory or herbicidal effect score (Barley (Hordeum vulgare)): 30
Mycelial Control Score (Pythium ultimum [2]; 30 ppm): 0 (<20% inhibition)
Mycelial Control Score (Pythium ultimum [2]; 100 ppm): 0 (<20% inhibition)
Germination Score (Pythium ultimum [3]; 30 ppm): 1 (20-34% inhibition)
Germination Score (Pythium ultimum [3]; 100 ppm): 5 (65-74% inhibition)
